Test results published in ChEMBL document CHEMBL1201862, “PubChem BioAssay data set” (2004).
Activity calls are given as the source filed them.

Columns and labels:
Cysteine protease ATG4B = Cysteine protease ATG4B (Homo sapiens, UniProt Q9Y4P1); experiment: ATG4B protease inhibitors, dose response, biochemical, fluorescence, set 2 (AID 588584); format: functional
Phospholipase A2 = Phospholipase A2 (Homo sapiens, UniProt P04054); experiment: PLA2 enzyme inhibitors, dose response, counter-screen for ATG4B inhibitor project, biochemical, set 2 (AID 588586); format: functional
Sequence of Phospholipase A2 (P04054 whole entry): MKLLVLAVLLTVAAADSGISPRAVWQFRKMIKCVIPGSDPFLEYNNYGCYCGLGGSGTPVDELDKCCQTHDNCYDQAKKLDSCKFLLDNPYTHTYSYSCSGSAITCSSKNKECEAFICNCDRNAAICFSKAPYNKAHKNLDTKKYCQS

[1] = Luminescence Cell-Based Dose Retest to Confirm Inhibitors of Cancer Stem Cells. [Related pubchem assays (depositor defined):AID2717, AID2721]; format: functional; settings: Homo sapiens
[2] = molecular target: T1, Tyrosine-protein phosphatase non-receptor type 22 (Homo sapiens, UniProt Q9Y2R2); experiment: SAR LYP1 Fluorescent Assay using OMFP substrate for In Vitro dose response studies - Set 3. [Related pubchem assays (depositor defined):AID1779, AID1784, AID2140, AID2686]; format: functional
T1 sequence (Q9Y2R2 whole entry): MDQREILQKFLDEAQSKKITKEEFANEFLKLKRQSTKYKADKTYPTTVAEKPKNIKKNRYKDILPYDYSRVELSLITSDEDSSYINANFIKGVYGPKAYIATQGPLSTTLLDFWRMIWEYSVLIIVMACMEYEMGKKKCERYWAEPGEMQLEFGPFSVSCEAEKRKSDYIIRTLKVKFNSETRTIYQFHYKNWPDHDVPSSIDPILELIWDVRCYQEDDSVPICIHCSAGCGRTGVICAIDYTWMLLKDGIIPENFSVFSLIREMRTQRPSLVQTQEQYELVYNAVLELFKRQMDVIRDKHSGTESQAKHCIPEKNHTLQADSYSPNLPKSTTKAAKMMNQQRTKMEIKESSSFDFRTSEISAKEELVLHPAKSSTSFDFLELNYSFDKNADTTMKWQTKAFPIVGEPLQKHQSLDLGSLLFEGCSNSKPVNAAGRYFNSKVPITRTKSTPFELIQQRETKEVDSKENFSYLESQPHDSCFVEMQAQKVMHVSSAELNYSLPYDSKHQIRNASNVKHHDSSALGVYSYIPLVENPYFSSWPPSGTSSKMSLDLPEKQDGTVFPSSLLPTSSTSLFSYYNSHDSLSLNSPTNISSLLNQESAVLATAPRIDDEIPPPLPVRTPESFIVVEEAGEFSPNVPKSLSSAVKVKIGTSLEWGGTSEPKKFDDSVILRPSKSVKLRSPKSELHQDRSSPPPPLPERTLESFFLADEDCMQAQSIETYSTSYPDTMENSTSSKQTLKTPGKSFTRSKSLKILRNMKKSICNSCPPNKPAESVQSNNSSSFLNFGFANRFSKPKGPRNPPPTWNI

[3] = molecular target: T1, Tyrosine-protein phosphatase non-receptor type 22; format: functional
[4] = molecular target: T1, Tyrosine-protein phosphatase non-receptor type 22; experiment: PubChem AID 2135
[5] = molecular target: T1, Tyrosine-protein phosphatase non-receptor type 22; experiment: SAR LYP1 Fluorescent Assay using pCAP substrate for In Vitro dose response studies - Set 2. [Related pubchem assays (depositor defined):AID1779, AID1784, AID2135, AID449727]; format: functional
[6] = molecular target: T2, Tyrosine-protein phosphatase non-receptor type 7 (Homo sapiens, UniProt P35236); experiment: HePTP (PTPN7) phosphatase inhibitor potency, SAR follow-up, biochemical, set 2 (AID 449736); format: functional
T2 sequence (P35236 whole entry): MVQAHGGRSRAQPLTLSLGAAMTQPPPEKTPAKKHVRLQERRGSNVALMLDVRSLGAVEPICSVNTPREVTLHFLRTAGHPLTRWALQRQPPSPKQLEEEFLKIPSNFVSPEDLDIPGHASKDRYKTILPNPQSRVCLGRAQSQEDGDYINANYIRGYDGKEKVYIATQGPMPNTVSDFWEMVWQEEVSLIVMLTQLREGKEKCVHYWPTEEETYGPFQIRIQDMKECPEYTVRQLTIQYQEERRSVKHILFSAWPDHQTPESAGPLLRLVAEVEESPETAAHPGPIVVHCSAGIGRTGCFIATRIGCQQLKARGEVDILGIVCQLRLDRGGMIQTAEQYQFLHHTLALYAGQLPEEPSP

[7] = molecular target: T2, Tyrosine-protein phosphatase non-receptor type 7; format: functional
[8] = molecular target: T1, Tyrosine-protein phosphatase non-receptor type 22; experiment: PubChem AID 2140
[9] = molecular target: Tyrosine-protein phosphatase non-receptor type 12 (Homo sapiens, UniProt Q05209); experiment: SAR Selectivity Analysis of small molecule inhibitors of PEST using pCAP in a fluorescence assay. [Related pubchem assays (depositor defined):AID1779, AID1784, AID2135]; format: functional
Sequence of Tyrosine-protein phosphatase non-receptor type 12 (Q05209 whole entry): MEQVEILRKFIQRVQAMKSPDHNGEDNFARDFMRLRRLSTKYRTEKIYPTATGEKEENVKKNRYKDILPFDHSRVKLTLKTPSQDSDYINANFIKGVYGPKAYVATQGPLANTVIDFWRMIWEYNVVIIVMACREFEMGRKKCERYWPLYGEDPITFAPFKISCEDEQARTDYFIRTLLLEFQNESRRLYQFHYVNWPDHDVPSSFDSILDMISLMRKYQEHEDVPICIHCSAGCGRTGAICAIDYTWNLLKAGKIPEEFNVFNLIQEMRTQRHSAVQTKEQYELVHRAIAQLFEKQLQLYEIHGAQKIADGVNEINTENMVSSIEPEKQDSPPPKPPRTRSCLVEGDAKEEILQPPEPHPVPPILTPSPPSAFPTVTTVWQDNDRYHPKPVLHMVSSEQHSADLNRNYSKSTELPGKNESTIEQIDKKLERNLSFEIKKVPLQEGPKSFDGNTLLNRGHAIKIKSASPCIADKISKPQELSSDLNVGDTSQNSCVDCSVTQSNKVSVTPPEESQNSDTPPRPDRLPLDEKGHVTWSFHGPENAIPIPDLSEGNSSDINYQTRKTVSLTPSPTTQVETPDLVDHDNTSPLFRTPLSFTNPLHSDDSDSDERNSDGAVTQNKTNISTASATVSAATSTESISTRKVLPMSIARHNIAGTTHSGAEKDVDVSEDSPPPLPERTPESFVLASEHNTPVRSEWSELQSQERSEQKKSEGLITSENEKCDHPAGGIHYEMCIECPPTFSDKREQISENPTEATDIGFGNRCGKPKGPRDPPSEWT

[10] = molecular target: T3, Heat shock factor protein 1 (Mus musculus, UniProt P38532); experiment: HSF1 potentiators in luciferase reporter cells, confirmation, cell-based, NIH3T3, luminescence, dose retest (AID 435004); format: functional;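 also: stress induced by proteasome inhibitor MG132 added 30 min after compound; luciferase reporter driven by HSF1 response element in NIH3T3 cells; actives raise luminescence as potentiators of the MG132 stress response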
T3 sequence (P38532 whole entry): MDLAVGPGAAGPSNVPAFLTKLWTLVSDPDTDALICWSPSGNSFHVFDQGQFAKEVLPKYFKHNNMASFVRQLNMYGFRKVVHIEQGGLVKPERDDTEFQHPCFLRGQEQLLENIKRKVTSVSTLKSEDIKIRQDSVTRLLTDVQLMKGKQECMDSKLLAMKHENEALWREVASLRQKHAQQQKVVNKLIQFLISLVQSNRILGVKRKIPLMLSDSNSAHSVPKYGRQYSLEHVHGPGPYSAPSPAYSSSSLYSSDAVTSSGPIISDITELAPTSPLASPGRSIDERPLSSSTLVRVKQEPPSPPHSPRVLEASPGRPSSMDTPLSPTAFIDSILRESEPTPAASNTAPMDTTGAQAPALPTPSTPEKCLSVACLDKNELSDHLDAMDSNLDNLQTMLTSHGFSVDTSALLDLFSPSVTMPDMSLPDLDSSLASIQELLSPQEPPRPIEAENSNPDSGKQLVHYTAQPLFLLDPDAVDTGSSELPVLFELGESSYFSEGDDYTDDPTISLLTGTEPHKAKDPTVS

[11] = molecular target: T4, Apoptotic protease-activating factor 1 (Homo sapiens, UniProt O14727); experiment: activation of Apaf-1 mediated apoptosis – fluorescent, uHTS hits, dose response (AID 588554); format: functional
T4 sequence (O14727 whole entry): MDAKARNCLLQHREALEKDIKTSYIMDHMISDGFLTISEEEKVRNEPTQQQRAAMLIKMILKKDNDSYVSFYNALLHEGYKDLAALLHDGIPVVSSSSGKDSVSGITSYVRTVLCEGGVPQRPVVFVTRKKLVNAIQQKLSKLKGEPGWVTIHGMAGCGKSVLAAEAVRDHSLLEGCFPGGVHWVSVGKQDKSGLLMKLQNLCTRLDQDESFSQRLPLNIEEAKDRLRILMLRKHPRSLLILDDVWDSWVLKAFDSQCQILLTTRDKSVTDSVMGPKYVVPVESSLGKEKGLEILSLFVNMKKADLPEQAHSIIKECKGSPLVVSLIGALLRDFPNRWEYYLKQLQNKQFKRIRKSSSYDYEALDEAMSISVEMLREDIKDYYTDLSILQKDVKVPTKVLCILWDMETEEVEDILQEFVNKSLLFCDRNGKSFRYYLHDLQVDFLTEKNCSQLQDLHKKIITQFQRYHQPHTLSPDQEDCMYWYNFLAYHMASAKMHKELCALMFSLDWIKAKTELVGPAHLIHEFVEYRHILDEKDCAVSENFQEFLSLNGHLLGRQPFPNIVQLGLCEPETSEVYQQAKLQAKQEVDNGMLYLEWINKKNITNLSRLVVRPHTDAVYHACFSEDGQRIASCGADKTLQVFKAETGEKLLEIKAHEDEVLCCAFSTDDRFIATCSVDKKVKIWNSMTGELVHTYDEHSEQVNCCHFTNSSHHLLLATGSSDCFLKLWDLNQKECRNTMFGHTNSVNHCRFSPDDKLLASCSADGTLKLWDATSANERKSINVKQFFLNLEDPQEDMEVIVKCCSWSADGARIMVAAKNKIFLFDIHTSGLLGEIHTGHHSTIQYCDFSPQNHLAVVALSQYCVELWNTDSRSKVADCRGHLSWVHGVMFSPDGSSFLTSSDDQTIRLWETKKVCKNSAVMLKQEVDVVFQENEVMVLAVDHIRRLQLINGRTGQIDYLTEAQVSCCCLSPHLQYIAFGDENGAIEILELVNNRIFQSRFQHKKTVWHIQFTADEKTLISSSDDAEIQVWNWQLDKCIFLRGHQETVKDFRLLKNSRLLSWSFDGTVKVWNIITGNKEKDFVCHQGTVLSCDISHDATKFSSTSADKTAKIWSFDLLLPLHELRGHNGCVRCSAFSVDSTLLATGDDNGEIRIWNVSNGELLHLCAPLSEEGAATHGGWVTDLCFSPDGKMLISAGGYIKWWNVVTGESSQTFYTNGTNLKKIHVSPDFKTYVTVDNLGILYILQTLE

[12] = molecular target: T1, Tyrosine-protein phosphatase non-receptor type 22; experiment: SAR LYP1 Fluorescent Assay using OMFP substrate for In Vitro dose response studies - Set 2. [Related pubchem assays (depositor defined):AID1779, AID1784, AID2140, AID449726, AID488869]; format: functional
[13] = molecular target: T1, Tyrosine-protein phosphatase non-receptor type 22; experiment: inhibitors of LYP phosphatase, biochemical, fluorescence intensity, uHTS (AID 1779)
[14] = molecular target: T1, Tyrosine-protein phosphatase non-receptor type 22; format: functional; remark: listed apart in the source
Escherichia coli = experiment: microbe, parasite or virus in culture
[15] = molecular target: T5, Corticotropin-releasing factor receptor 2/Corticotropin-releasing factor-binding protein (Homo sapiens, UniProt P24387+Q13324); experiment: Dose Response confirmation of uHTS hits for small molecule antagonists of the CRF-binding protein and CRF-R2 receptor complex.; format: functional; settings: read-out: IC50_Mean
T5 sequence (Q13324 whole entry): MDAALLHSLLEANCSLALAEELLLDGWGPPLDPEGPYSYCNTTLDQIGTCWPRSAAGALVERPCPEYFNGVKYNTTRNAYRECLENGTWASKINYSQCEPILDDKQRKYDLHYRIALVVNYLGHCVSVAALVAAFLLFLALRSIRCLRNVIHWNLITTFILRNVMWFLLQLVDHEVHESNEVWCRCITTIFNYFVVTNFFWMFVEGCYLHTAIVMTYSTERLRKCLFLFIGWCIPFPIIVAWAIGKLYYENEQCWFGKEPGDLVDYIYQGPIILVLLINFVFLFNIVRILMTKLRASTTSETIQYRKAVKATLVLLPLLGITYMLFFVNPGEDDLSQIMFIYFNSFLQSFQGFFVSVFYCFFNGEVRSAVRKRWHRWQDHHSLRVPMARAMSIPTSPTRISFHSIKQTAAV
T5 sequence (P24387 whole entry): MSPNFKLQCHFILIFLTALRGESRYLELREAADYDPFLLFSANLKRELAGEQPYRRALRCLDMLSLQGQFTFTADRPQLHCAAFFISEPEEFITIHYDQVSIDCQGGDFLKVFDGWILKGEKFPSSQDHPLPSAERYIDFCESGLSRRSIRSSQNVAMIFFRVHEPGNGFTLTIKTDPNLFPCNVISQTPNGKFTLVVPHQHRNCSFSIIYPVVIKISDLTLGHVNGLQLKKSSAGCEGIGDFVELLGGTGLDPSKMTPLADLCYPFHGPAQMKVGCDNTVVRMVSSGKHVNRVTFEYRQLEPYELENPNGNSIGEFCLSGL

[16] = molecular target: T5, Corticotropin-releasing factor receptor 2/Corticotropin-releasing factor-binding protein; experiment: activators of CRF receptor 2 with binding protein – uHTS hits, confirmation (AID 602473); format: functional; settings: read-out: EC50_Mean
Fatty acid synthase [17] = molecular target: T6, Fatty acid synthase (Homo sapiens, UniProt P49327); experiment: FAS thioesterase domain inhibitors, dose response, biochemical, kinetic fluorescence intensity (AID 624326); format: functional;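 also: rate of fluorescence rise from hydrolysis of a fluorogenic O-methyl fluorescein ester substrate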
T6 sequence (P49327 whole entry, the tested form may be a part): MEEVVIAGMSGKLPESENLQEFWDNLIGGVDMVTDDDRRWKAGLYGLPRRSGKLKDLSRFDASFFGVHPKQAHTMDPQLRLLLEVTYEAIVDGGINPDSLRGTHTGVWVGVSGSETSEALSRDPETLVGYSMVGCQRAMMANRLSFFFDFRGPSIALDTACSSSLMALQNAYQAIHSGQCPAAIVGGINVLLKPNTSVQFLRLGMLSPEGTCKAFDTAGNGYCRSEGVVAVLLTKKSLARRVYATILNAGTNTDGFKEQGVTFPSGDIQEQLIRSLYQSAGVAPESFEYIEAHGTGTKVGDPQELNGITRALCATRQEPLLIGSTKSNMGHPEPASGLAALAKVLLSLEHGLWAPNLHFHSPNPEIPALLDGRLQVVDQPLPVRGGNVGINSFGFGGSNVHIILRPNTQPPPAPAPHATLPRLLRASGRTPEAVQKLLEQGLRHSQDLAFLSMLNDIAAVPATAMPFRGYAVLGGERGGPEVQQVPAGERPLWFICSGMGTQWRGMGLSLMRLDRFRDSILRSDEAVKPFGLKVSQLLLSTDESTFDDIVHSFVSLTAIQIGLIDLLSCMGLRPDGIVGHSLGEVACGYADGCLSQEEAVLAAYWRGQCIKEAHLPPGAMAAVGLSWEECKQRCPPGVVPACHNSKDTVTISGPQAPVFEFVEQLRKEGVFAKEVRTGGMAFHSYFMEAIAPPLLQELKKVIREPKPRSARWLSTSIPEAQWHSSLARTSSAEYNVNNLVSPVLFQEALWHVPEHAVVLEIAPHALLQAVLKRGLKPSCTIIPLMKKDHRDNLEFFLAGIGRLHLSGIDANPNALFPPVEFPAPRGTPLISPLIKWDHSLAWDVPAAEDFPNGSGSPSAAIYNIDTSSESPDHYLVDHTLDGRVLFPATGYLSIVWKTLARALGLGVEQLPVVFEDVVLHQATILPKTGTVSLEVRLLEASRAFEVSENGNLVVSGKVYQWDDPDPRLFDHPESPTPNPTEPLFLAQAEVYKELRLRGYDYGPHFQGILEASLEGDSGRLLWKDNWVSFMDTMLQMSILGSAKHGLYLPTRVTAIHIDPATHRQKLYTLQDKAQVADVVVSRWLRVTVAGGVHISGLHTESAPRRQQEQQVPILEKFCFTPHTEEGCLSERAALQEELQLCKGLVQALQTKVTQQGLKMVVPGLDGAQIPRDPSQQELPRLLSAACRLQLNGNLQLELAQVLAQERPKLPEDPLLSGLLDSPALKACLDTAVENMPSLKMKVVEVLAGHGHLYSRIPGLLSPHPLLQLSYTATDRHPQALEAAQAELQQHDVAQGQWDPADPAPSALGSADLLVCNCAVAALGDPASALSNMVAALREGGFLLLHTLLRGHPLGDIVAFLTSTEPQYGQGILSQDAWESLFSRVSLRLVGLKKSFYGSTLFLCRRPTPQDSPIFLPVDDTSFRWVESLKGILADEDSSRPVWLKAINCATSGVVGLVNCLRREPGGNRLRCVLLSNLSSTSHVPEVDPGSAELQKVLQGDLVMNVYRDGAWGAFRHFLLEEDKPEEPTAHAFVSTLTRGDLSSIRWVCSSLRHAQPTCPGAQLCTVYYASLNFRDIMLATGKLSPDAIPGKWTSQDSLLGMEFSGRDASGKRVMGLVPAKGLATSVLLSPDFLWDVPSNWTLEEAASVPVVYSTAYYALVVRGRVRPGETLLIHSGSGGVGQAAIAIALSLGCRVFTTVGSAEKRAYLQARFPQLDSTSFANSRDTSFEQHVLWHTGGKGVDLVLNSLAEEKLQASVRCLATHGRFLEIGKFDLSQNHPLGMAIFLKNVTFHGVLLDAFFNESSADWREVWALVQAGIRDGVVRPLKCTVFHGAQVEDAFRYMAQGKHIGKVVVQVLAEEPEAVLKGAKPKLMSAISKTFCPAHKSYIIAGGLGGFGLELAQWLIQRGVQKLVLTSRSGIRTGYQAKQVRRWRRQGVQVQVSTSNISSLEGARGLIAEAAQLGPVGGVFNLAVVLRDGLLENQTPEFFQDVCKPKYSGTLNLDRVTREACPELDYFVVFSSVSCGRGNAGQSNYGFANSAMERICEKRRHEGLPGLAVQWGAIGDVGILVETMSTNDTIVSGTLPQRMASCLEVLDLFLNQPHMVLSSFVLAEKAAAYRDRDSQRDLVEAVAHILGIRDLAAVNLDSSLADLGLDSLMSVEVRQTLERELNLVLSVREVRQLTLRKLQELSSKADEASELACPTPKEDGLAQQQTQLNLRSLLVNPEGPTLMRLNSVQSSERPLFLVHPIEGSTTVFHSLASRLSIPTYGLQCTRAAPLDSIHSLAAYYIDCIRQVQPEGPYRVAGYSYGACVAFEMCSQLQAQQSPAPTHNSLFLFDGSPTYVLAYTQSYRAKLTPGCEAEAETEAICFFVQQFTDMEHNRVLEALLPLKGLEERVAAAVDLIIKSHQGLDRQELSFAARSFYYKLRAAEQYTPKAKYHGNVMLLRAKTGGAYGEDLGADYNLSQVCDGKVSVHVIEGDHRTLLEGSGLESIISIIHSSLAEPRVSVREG

Keap1/Nrf2 = Keap1/Nrf2 (Homo sapiens, UniProt Q14145); experiment: Keap1-Nrf2 protein-protein interaction inhibitors, dose response, biochemical, fluorescence polarization, cherry-picked samples (AID 588683)
Sequence of Keap1/Nrf2 (Q16236 whole entry, the tested form may be a part): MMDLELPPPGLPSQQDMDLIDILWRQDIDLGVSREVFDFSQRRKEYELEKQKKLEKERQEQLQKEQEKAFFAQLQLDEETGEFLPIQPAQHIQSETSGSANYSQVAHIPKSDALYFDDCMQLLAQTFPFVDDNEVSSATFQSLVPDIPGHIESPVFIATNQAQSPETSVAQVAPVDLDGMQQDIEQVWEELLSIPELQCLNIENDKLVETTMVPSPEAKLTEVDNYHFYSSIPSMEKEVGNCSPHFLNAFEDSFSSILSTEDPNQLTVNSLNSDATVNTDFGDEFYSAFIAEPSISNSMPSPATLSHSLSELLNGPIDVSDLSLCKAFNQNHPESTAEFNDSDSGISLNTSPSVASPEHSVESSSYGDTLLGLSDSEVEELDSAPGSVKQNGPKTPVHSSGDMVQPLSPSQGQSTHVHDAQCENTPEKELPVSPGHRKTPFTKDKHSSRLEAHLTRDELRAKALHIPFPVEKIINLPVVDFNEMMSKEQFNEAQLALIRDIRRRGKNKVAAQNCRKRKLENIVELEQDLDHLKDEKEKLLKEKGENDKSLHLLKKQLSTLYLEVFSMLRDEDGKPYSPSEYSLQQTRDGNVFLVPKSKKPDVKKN
Sequence of Keap1/Nrf2 (Q14145 whole entry, the tested form may be a part): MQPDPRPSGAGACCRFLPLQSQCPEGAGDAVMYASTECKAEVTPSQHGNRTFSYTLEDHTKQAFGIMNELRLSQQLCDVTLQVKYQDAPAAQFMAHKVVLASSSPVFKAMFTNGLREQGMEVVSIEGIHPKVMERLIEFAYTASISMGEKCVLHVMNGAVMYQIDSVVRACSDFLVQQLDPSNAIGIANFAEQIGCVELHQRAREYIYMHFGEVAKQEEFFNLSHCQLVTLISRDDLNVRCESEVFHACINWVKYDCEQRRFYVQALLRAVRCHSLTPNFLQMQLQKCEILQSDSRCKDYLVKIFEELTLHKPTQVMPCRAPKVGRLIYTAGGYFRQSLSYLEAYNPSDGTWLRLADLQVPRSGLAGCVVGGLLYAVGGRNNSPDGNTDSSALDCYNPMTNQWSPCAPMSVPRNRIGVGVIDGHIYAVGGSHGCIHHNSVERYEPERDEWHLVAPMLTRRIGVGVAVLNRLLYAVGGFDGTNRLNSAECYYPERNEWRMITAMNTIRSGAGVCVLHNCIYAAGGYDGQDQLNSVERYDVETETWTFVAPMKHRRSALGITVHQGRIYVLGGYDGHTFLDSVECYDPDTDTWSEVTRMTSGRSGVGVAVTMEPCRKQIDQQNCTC

Fatty acid synthase [18] = molecular target: T6, Fatty acid synthase; experiment: FAS thioesterase domain inhibitors, dose response, biochemical, endpoint fluorescence intensity, uHTS hits (AID 624327); format: functional;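 also: fluorescence from hydrolysis of an O-methyl fluorescein acyl ester substrate by the enzyme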

Sequence of Cysteine protease ATG4B (Q9Y4P1 whole entry): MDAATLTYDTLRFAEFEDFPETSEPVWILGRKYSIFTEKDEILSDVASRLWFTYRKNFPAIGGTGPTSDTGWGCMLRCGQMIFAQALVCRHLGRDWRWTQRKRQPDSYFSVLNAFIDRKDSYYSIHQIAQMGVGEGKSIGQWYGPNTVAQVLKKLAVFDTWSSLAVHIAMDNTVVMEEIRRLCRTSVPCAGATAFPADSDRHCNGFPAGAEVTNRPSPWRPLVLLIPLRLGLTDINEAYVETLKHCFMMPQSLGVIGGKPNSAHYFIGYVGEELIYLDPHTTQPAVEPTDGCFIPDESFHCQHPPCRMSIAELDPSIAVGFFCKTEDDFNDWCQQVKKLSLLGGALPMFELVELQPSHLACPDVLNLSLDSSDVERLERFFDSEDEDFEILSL

COc1ccc(OC)c(NC(=O)c2nnn(Cc3ccccc3C)c2N)c1
active: IC50 (Cysteine protease ATG4B) 19.9 µM | IC50 (Phospholipase A2) 13.4 µM | AC50 [1] 2.47 µM

N#C/C(=C\c1ccc(OCc2ccc(Cl)cc2)cc1)C(=O)Nc1cccc(C(=O)O)c1
active: IC50 [2] 4.74 µM | IC50 [3] 6.86 µM | IC50 [4] 4.96 µM | IC50 [5] 6.54 µM | IC50 [6] 0.651 µM | IC50 [7] 14.6 µM | IC50 [8] 34.2 µM | IC50 [9] 2.91 µM | EC50 [10] 10.9 µM | EC50 [11] 20.8 µM | IC50 [12] 3.77 µM | IC50 [13] 8.62 µM | IC50 [14] 6.42 µM

CCn1c(=O)c2c3c(sc2n2c(S)nnc12)CCC3
active: AC50 (Escherichia coli) 24.2 µM

COc1ccc(C(C)=NNc2ccc([N+](=O)[O-])cc2S(=O)(=O)Nc2ccccc2C(=O)O)c(OC)c1
active: IC50 [15] 0.754 µM | EC50 [16] 38.6 µM | IC50 (Fatty acid synthase [17]) 9.07 µM | AC50 (Keap1/Nrf2) 25.7 µM | IC50 (Fatty acid synthase [18]) 13.3 µM
